Reference: article PMC3998376 (Journal of chromatography. A, 2014)
Blank lines part the entries; values can stand above or below the molecule they belong to.

What was measured:
[1] = biological target: T1, nuclear BCRP (Homo sapiens, UniProt Q9UNQ0); test: Screening of BCRP ligands, single frontal displacement of etoposide on NMAC; conditions: NMAC(LN229) column, verapamil in mobile phase, etoposide as marker ligand
T1 sequence (Q9UNQ0 1-655): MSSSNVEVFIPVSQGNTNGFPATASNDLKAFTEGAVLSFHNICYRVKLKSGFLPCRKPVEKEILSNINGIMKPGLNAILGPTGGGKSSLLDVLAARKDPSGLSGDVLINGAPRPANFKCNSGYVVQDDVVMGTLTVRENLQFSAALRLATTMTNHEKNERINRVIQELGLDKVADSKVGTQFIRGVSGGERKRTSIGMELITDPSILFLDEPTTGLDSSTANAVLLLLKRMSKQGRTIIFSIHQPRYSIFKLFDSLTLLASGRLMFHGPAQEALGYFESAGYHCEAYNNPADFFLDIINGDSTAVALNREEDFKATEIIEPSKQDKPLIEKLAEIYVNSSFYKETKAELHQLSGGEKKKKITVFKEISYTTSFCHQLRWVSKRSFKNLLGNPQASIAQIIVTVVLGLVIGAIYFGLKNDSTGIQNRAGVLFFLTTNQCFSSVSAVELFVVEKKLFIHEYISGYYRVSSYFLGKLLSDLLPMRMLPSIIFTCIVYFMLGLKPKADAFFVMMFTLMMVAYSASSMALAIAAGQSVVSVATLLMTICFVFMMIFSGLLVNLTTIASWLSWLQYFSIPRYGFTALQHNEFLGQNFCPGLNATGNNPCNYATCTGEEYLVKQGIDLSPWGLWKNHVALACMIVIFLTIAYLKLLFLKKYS

[2] = system: Pgp, MRP1 and BCRP transporters (LN-229 nuclear membranes, open tubular); test: Frontal affinity chromatography on NMAC; format: binding, human; conditions: read-out: Binding affinity (Kd); NMAC(LN-229)-OT column, ammonium acetate 10 mM pH 7.4, 0.05 mL/min
[3] = system: Pgp, MRP1 and BCRP transporters (LN-229 cellular membranes, open tubular); test: Frontal affinity chromatography on CMAC; format: binding, human; conditions: read-out: Binding affinity (Kd); CMAC(LN-229)-OT column, ammonium acetate 10 mM pH 7.4, 0.05 mL/min
[4] = biological target: T2, BCRP (Homo sapiens, UniProt Q9UNQ0); test: Selective Kd determination on NMAC; format: binding
T2 sequence (Q9UNQ0 1-655): T1 sequence (Q9UNQ0 1-655)

[5] = biological target: MRP1 (Homo sapiens, UniProt P33527); test: Selective Kd determination on NMAC; format: binding
[6] = system: Pgp, MRP1 and BCRP; test: Frontal affinity chromatography on NMAC; format: binding, human; conditions: human, pH 7.4
[7] = system: Pgp, MRP1 and BCRP; test: Frontal affinity chromatography on CMAC; format: binding, human; conditions: human, pH 7.4
[8] = system: Pgp, MRP1 and BCRP co-immobilized; test: in vitro; conditions: human, pH 7.4, Binding affinity (Kd), NMAC(LN-229)-IAM column, all transporters, ammonium acetate 10 mM pH 7.4, 0.4 mL/min

Chain of MRP1 (P33527 whole entry): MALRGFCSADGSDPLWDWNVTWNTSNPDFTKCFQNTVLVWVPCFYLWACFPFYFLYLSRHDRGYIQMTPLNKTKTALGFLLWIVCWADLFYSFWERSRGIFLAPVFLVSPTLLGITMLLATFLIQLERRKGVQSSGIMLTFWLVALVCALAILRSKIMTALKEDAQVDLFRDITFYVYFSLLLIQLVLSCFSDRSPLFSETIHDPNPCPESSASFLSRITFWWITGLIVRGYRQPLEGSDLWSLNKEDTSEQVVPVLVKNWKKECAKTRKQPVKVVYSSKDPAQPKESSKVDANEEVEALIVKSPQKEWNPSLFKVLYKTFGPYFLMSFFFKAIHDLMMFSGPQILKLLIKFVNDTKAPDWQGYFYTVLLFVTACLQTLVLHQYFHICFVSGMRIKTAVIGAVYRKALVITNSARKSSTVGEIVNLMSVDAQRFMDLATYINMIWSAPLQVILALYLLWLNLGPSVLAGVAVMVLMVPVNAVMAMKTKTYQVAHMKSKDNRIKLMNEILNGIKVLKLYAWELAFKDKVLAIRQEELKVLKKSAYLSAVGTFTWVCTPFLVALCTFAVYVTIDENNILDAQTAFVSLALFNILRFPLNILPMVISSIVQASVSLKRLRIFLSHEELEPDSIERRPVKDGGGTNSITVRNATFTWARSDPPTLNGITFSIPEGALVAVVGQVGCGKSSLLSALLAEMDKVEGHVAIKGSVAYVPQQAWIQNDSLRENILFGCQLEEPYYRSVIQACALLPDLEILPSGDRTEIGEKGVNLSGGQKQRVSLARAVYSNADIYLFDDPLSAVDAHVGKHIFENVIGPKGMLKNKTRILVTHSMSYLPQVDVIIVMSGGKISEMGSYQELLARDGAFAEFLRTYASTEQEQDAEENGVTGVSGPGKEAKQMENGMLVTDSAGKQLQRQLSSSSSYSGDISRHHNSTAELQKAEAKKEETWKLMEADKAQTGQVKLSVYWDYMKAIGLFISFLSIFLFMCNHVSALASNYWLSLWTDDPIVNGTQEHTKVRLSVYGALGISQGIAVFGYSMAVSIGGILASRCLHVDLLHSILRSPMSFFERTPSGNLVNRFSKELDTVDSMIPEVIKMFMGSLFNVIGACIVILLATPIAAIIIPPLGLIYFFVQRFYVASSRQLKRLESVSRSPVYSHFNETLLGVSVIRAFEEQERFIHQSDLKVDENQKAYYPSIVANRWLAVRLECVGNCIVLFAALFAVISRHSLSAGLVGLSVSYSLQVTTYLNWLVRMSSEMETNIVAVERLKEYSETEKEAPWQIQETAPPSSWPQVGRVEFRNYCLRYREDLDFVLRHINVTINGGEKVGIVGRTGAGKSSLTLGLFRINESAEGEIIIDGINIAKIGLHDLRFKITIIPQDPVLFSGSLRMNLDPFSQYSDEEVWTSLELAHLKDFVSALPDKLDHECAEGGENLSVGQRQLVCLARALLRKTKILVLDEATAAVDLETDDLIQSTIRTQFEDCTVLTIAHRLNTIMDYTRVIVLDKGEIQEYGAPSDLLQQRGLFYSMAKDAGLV

- Change in retention of etoposide [1]: −5%
Structure (SMILES): Cc1cn([C@H]2C[C@H](N=[N+]=[N-])[C@@H](CO)O2)c(=O)[nH]c1=O [AZT, zidovudine]

- Kd [2]: 1.75 ± 0.36 µM
- Kd [3]: 0.69 ± 0.17 µM
Structure (SMILES): COc1ccc(-c2coc3cc(O)cc(O)c3c2=O)cc1 [biochanin A]

Structure (SMILES): COc1cc([C@@H]2c3cc4c(cc3[C@@H](O[C@@H]3O[C@@H]5CO[C@@H](C)O[C@H]5[C@H](O)[C@H]3O)[C@H]3COC(=O)[C@H]23)OCO4)cc(OC)c1O [etoposide]
- Kd [4]: 1.41 ± 0.54 µM
- Reduction of breakthrough volume on addition of 2 μM verapamil ([4]; 0.75 μM etoposide, NMAC(LN-229)-IAM): ~ 10%
- Reduction of breakthrough volume on addition of 2 μM verapamil ([4]; 5 μM etoposide, NMAC(LN-229)-IAM): ~ 15%
- Breakthrough volume with 2 μM verapamil in mobile phase ([4]; 5 μM etoposide, NMAC(LN-229)-IAM, 2 μM verapamil): 21.01 min
- Kd [5]: 4.39 ± 1.93 µM
- Kd [6]: 1.26 ± 0.36 µM
- Kd [7]: 2.25 ± 0.49 µM
- Kd [8]: 3.75 ± 0.97 µM
